Values joined by “and” are separate entries in the source; they are usually repeats but may differ in a detail not shown here. Equal entries are not always repeated.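 Step 1: Grow cells in 96-well plates. Step 2: Expose to compound for 48 hours at 5 concentrations. Step 3: Interpolate endpoints linearly; if unreached, use highest concentration. Here, GI50 denotes the concentration required for 50% inhibition of growth. The concentration for full growth arrest is given as TGI.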
Legend:
Assay in all cases: DTP human tumour cell line panel, 48 h
[1] = test system: SK-MEL-28 melanoma
[2] = test system: DU-145 prostate
[3] = test system: SK-MEL-5 melanoma
[4] = test system: MDA-MB-231 breast
[5] = test system: SW-620 colon
[6] = test system: NCI-H522 lung
[7] = test system: HT29 colon
[8] = test system: CCRF-CEM leukemia
[9] = test system: NCI-H226 lung
[10] = test system: OVCAR-8 ovarian

Row | Structure (SMILES) | GI50 [1] | TGI [1] | GI50 [2] [µM] | TGI [2] | GI50 [3] | TGI [3] | GI50 [4] | TGI [4] | GI50 [5] | TGI [5] | GI50 [6] | TGI [6] | GI50 [7] [µM] | TGI [7] | GI50 [8] [µM] | TGI [8] | GI50 [9] [µM] | TGI [9] | GI50 [10] | TGI [10]
1 | O=C1c2ccccc2-c2c1c1ccccc1c(=O)n2CCCNCCCn1ccnc1 | 2.94 µM | 8.92 µM | 0.318 | 2.07 µM | 0.379 µM | 1.68 µM | 2.68 µM | 7.36 µM | 0.24 µM | 1.82 µM | 1.66 µM | 9.29 µM | 1.21 | > 33.4 µM | 0.246 | 1.71 µM | 0.186 | 0.436 µM | 2.44 µM | > 37.3 µM
2 | CN1CCN(CCCN)CC1 | – | > 100 µM | – | > 100 µM | – | > 100 µM | – | > 100 µM | – | > 100 µM | – | > 100 µM | – | > 100 µM | – | > 100 µM | – | > 100 µM | – | > 100 µM
3 | O=Cc1ccc(-c2cc(C=O)c(-c3cccs3)[nH]2)s1 | > 100 µM | 75 µM and > 100 µM | – | 75 µM and > 100 µM | 40.5 µM | 75 µM and > 100 µM | > 100 µM | 75 µM and > 100 µM | > 100 µM | > 100 µM | 19.6 µM | 19.9 µM and 57.4 µM | – | 75 µM | > 100 | 75 µM and > 100 µM | – | 40 µM | > 100 µM | 75 µM and > 100 µM
4 | O=C1Nc2ccc(C(=O)c3ccco3)cc2/C1=C/c1cc(Cl)c(O)c(Cl)c1 | 4.17 µM | > 18.1 µM | 4.75 | > 18.4 µM | 3.43 µM | 6.88 µM | 9.89 µM | > 25 µM | 4.8 µM | > 23.8 µM | 3.91 µM | 11.9 µM | 5.75 | > 21.2 µM | 1.76 | > 25 µM | 6.98 | > 24.1 µM | 6.27 µM | > 25 µM
5 | CCOC(=O)C(Cc1c[nH]c2ccc(N)cc12)(NC(C)=O)C(=O)OCC | > 1000 µM | > 1000 µM | > 1000 | > 1000 µM | > 1000 µM | > 1000 µM | > 1000 µM | > 1000 µM | > 1000 µM | > 1000 µM | > 1000 µM | > 1000 µM | > 1000 | > 1000 µM | 656 | > 1000 µM | > 1000 | > 1000 µM | > 1000 µM | > 1000 µM
6 | Cc1cc(I)cc(CN(C)CCCN2CCSCC2)c1O | 27.9 µM | 87.6 µM | 41 | > 100 µM | 16.4 µM | 31 µM | 27.8 µM | 92.3 µM | 19.4 µM | 38.9 µM | 23.6 µM | 55.9 µM | 18.8 | 43.1 µM | – | – | 39.5 | > 100 µM | 34.8 µM | > 100 µM
7 | CC12OC(c3ccccc3)=CC(c3ccc(Cl)cc3)=C1C(c1ccccc1)=CC2=O (stereo not drawn) | 66.5 µM | > 100 µM | > 100 | > 100 µM | 42.1 µM | > 100 µM | 67.2 µM | > 100 µM | 90.4 µM | > 100 µM | 72.2 µM | > 100 µM | 27.7 | > 100 µM | 56.2 | > 100 µM | 68.1 | > 100 µM | > 100 µM | > 100 µM
8 | COC(=O)CCc1cc(OC)c2c(c1)C(C(=O)OC)C(c1ccc(OC)c(OC)c1)O2 (stereo not drawn) | 21.9 µM and > 100 µM | > 100 µM | > 100 | > 100 µM | > 100 µM and 12 µM | > 100 µM | > 100 µM and 21.4 µM | > 100 µM | > 100 µM and 17.3 µM | > 100 µM | > 100 µM and 19.9 µM | > 100 µM | – | > 100 µM | – | > 100 µM | – | > 100 µM and 54.5 µM | > 100 µM and 39.6 µM | > 100 µM
9 | CN[C@@H](C)C(=O)N[C@H](C(=O)N1CCC[C@H]1C(=O)N[C@H]1c2ccccc2C[C@H]1OCC#CC#CCO[C@@H]1Cc2ccccc2[C@@H]1NC(=O)[C@@H]1CCCN1C(=O)[C@@H](NC(=O)[C@H](C)NC)C1CCCCC1)C1CCCCC1 | 1.8 µM | 3.55 µM | 5.35 | 16.5 µM | 2.37 µM | 13.7 µM | < 0.01 µM | – | 3.6 µM | 11.5 µM | 0.0623 µM | 2.37 µM | 3.68 | 12.6 µM | 1.1 | 4.27 µM | 19.6 | 41.5 µM | 0.452 µM | 8.31 µM
10 | CCN(CC)CCCC(C)Nc1c2ccc(Cl)cc2nc2ccc(OC)cc12 (stereo not drawn) | 2.27 µM | 4.4 µM and 3.1 µM | 2.28 | 6.37 µM | – | 3.1 µM | 0.968 µM | – | 1.18 µM | 8.55 µM and 4.35 µM | – | 2.97 µM | – | 3.97 µM and 2.57 µM | 1.48 | 7.62 µM and 5.45 µM | – | 10.7 µM | 1.23 µM | 5.64 µM and 5.73 µM
11 | CC(C)c1ccc(C(=O)Nc2nc3ccc(O)cc3s2)cc1 | 0.628 µM | > 100 µM | 1.7 | > 100 µM | 0.535 µM | > 100 µM | 1.97 µM | > 100 µM | 0.552 µM | > 100 µM | 0.693 µM | > 100 µM | 3.38 | 17.8 µM | 0.318 | > 100 µM | 5.16 | 50.4 µM | 1.48 µM | > 100 µM
12 | CSc1ccc(C2=NN(C(=O)c3ccc(F)cc3)C(c3ccc(F)cc3)C2)cc1 (stereo not drawn) | 18.3 µM | 32.6 µM | 14.6 | 29.3 µM | 18.5 µM | 33.3 µM | 14 µM | 32.3 µM | 14.2 µM | 34.2 µM | 13.3 µM | 27.7 µM | 4.37 | 15.8 µM | 2.24 | 6.52 µM | 13.4 | 34.3 µM | 13.5 µM | 28.9 µM
13 | COc1cc(C(=O)/C(C)=C/c2c[nH]c3ccccc23)cc(OC)c1OC | 0.0175 µM | – | 0.00383 | > 100 µM | 0.00428 µM | 0.0205 µM | 0.0039 µM | > 100 µM | 0.00416 µM | > 100 µM | 0.00282 µM | 0.00728 µM | 0.00402 | – | 0.00511 | > 100 µM | – | > 100 µM | 0.00358 µM | 82.4 µM

Source: PubChem BioAssay (NCI)
